# Assays:
# Format in all cases: in vivo
# Design in all cases: key: compounds are considered to be active when, at a concentration of 500 ppm or less, their action on the harmful organisms is 50% or more
# [1] = system: L2 larvae of the sugar beet armyworm (Spodoptera exigua); experiment: Example H: L2 larvae of sugar beet armyworm, Petri dish with culture medium; details: 500 ppm or less, after 6 days
# Description: (§1) In Examples A to L below, compounds are considered to be active when, at a concentration of 500 ppm or less, their action on the harmful organisms is 50% or more.
# A Petri dish whose bottom was covered with filter paper and which contained […] of culture medium was prepared. Five L2 larvae of the sugar beet armyworm (Spodoptera exigua) were counted into a small beaker. 200 μl of an aqueous solution of the formulated preparation to be examined were pipetted into the beaker. The treated larvae were then poured into the Petri dish and a further 200 μl of the aqueous solution were distributed over the culture medium. The Petri dish was closed and then stored at 25° C. in a climatized chamber. After 6 days of storage, the effect of the preparation on the larvae (mortality) was determined. The following examples were active: Nos. 31, 97, 226, 227, 228, 229, 351, 356, 357, 592, 593, 595, 949, 1001, 1126, 1129, 1132.
# [2] = system: eggs of the American tobacco budworm (Heliothis virescens); experiment: Example C: eggs of American tobacco budworm, Petri dish with culture medium; details: 500 ppm or less; eggs dipped 5 seconds, 200 μl on culture medium; after 6 days
# Description: as §1
# A Petri dish whose bottom was covered with filter paper and which contained about 5 ml of culture medium was prepared. Pieces of filter paper with about 30, one-day-old eggs of the American tobacco budworm (Heliothis virescens) were dipped for 5 seconds into an aqueous solution of the formulated preparation to be examined and subsequently placed in a Petri dish. A further 200 μl of the aqueous solution were spread over the culture medium. The Petri dish was closed and then stored at about 25° C. in a climatized chamber. After 6 days of storage, the effect of the preparation on the eggs and any larvae which may have hatched from these (mortality) was determined. The following examples were active: Nos. 6, 27, 28, 29, 31, 35, 39, 43, 45, 59, 97, 226, 227, 228, 229, 351, 356, 357, 592, 593, 595, 949, 1001, 1126, 1129, 1132.
# [3] = system: L2 larvae of the sugar beet armyworm (Spodoptera exigua); experiment: Example I: sugar beet armyworm L2 larvae on sprayed cotton leaves; details: 500 ppm or less, after 4 days
# Description: as §1
# Cotton plants were sprayed with an aqueous solution of the formulated preparation to be examined. After drying, leaves were cut off, placed into a Petri dish and populated with 5 L2 larvae of the sugar beet armyworm (Spodoptera exigua). After 4 days of storage at about 23° C., the effect of the preparation on the larvae (mortality) was determined. The following examples were active: Nos. 27, 28, 45, 59.
# [4] = system: larvae of the diamondback moth (Plutella xylostella); experiment: Example L: diamondback moth larvae on sprayed cabbage leaf; details: 500 ppm or less, after 4 days
# Description: as §1
# A cabbage leaf was sprayed with an aqueous solution of the formulated preparation to be examined. After drying, the treated leaf was populated with larvae of the diamondback moth (Plutella xylostella). After 4 days of storage at about 25° C., the effect of the preparation on the larvae (mortality) was determined. The following examples were active: Nos. 27, 28, 45.
# [5] = system: L2 larvae of the Egyptian cotton leaf worm (Spodoptera littoralis); experiment: Example D: L2 larvae of Egyptian cotton leaf worm, Petri dish with culture medium; details: 500 ppm or less, after 6 days
# Description: as §1
# A Petri dish whose bottom was covered with filter paper and which contained about 5 ml of culture medium was prepared. Five L2 larvae of the Egyptian cotton leaf worm (Spodoptera littoralis) were counted into small beakers. 200 μl of an aqueous solution of the formulated preparation to be examined were pipetted into the beaker. The treated larvae were then poured into the Petri dish, and a further 200 μl of the aqueous solution were distributed over the culture medium. The Petri dish was closed and then stored at about 25° C. in a climatized chamber. After 6 days of storage, the effect of the preparation on the larvae (mortality) was determined. The following examples were active: Nos. 27, 28, 29, 39, 43, 45, 59.
# [6] = system: spider mites (Tetranychus urticae); experiment: Example A: spider mites on bean leaf, dip treatment; details: 500 ppm or less; leaf and mites dipped 5 seconds; after 6 days
# Description: as §1
# Cut stems of bean plants (Phaseolus vulgaris) carrying one leaf were transferred into brown glass bottles filled with tap water and subsequently populated with approximately 100 spider mites (Tetranychus urticae). The plant leaf and the spider mites were then dipped for 5 seconds into an aqueous solution of the formulated preparation to be examined. After the solution had run off, plants and animals were stored in a climatized chamber (16 hours of light/day, 25° C., 40-60% relative atmospheric humidity). After 6 days of storage, the effect of the preparation on all stages of the spider mites was determined. The following examples were active: Nos. 43, 45, 97, 1132.
# [7] = system: black bean aphids (Aphis fabae); experiment: Example B: black bean aphids on field bean, dip treatment; details: 500 ppm or less; plants and aphids dipped 5 seconds; after 3 and 6 days
# Description: as §1
# Germinated field bean seeds (Vicia faba) with radicles were transferred into brown glass bottles filled with tap water and subsequently populated with approximately 100 black bean aphids (Aphis fabae). Plants and aphids were then dipped for 5 seconds into an aqueous solution of the formulated preparation to be examined. After the solution had run off, plants and animals were stored in an acclimatized chamber (16 hours of light/day, 25° C., 40-60% relative atmospheric humidity). After 3 and 6 days of storage, the effect of the preparation on the aphids (mortality) was determined. The following examples were active: Nos. 33, 36, 357, 1126.
# [8] = system: larvae of the root gall nematode (Meloidogyne incognita); experiment: Example F: root gall nematode, contact action (part A) and soil drench action on cucumber (part B); details: 500 ppm or less; part A 6 days exposure, part B root galls on cucumber after 2 weeks (Abbott's formula)
# Description: as §1
# Part A of the examination (contact action): in a glass vessel, an aqueous solution of the formulated preparation to be examined was added to about 5000 freshly hatched active (mobile) larvae (2nd development stage) of the root gall nematode (Meloidogyne incognita) (final volume 20 ml). After 6 days of permanent exposure of the nematode larvae, the percentage of the individual larvae immobilized by the action of the preparation was determined in comparison to the untreated controls (nematicidal contact action in percent).
# Part B of the examination (soil drench action): to this end, the entire solution from part A of the examination (active compound and pre-treated nematode larvae) was poured into a pot, filled with 60 ml of soil, into which three 9-day-old cucumber plants (Cucumis sativus) had been planted. This drench application reduced the active compound content based on the soil volume to one third of the active compound content in part A of the examination. After 2 weeks in a greenhouse at about 26° C. (watering: twice a day), the root balls of the cucumber plants were carefully washed out of the soil mixture contaminated with nematodes. The number of root galls per plant was counted and compared to the infection of untreated control plants. The reduction of the infection in percent as a criterion for the assessment of the activity was calculated using Abbott's formula (nematicidal soil drench action). The following examples were active: Nos. 6, 7, 29, 32, 34, 44, 356.
Compound,effect of the preparation on the larvae (mortality) [1],effect of the preparation on the eggs and any larvae hatched (mortality) [2],also measured
COCC#Cc1cc(OCC=C(Cl)Cl)cc(Cl)c1OCCCOc1ccc(C(F)(F)F)cn1 [compound 228],active,active,
NC(=S)c1cc(OCC=C(Cl)Cl)cc(Cl)c1OCCCOc1ccc(C(F)(F)F)cn1 [compound 31],active,active,
CON=C(C)c1cc(OCC=C(Cl)Cl)cc(Cl)c1OCCCCOc1ncc(Cl)cc1Cl [compound 45],,active,effect of the preparation on the larvae (mortality) [3]: active; effect of the preparation on the larvae (mortality) [4]: active; effect of the preparation on the larvae (mortality) [5]: active; effect of the preparation on all stages of the spider mites [6]: active
CN(C)C(=O)c1cc(OCC=C(Cl)Cl)cc(Cl)c1OCCCOc1ccc(C(F)(F)F)cn1 [compound 36],,,effect of the preparation on the aphids (mortality) [7]: active
CC(=O)c1cc(OCC=C(Cl)Cl)cc(Cl)c1OCCCCOc1ncc(Cl)cc1Cl [compound 43],,active,effect of the preparation on the larvae (mortality) [5]: active; effect of the preparation on all stages of the spider mites [6]: active
C=Cc1cc(OCC=C(Cl)Cl)cc(Cl)c1OCCCOc1ccc(C(F)(F)F)cn1 [compound 595],active,active,
CCNC(=O)c1cc(OCC=C(Cl)Cl)cc(Cl)c1OCCCOc1ccc(C(F)(F)F)cn1 [compound 34],,,nematicidal contact action / nematicidal soil drench action [8]: active
Cc1noc(-c2cc(OCC=C(Cl)Cl)cc(Cl)c2OCCCOc2ccc(C(F)(F)F)cn2)n1 [compound 357],active,active,effect of the preparation on the aphids (mortality) [7]: active
CC(=O)c1cc(OCC=C(Cl)Cl)cc(Cl)c1OCCCc1ccc(Cl)cc1 [compound 6],,active,nematicidal contact action / nematicidal soil drench action [8]: active
OCC#Cc1cc(OCC=C(Cl)Cl)cc(Cl)c1OCCCOc1ccc(C(F)(F)F)cn1 [compound 227],active,active,
CSCc1noc(-c2cc(OCC=C(Cl)Cl)cc(Cl)c2OCCCOc2ccc(C(F)(F)F)cn2)n1 [compound 351],active,active,
CCOC(=O)C=Cc1cc(OCC=C(Cl)Cl)cc(Cl)c1OCCCOc1ccc(C(F)(F)F)cn1 [compound 592],active,active,
CC(CO)NC(=O)c1cc(OCC=C(Cl)Cl)cc(Cl)c1OCCCOc1ccc(C(F)(F)F)cn1 (stereo not shown) [compound 32],,,nematicidal contact action / nematicidal soil drench action [8]: active
CON(C)C(=O)c1cc(OCC=C(Cl)Cl)cc(Cl)c1OCCCOc1ccc(C(F)(F)F)cn1 [compound 35],,active,
CON=C(C)c1cc(OCC=C(Cl)Cl)cc(Cl)c1OCCCOc1ccc(C(F)(F)F)cn1 [compound 29],,active,nematicidal contact action / nematicidal soil drench action [8]: active; effect of the preparation on the larvae (mortality) [5]: active
CC(=NO)c1cc(OCC=C(Cl)Cl)cc(Cl)c1OCCCCOc1ncc(Cl)cc1Cl [compound 44],,,nematicidal contact action / nematicidal soil drench action [8]: active
C#Cc1cc(OCC=C(Cl)Cl)cc(Cl)c1OCCCOc1ccc(C(F)(F)F)cn1 [compound 229],active,active,
COC(=O)C=Cc1cc(OCC=C(Cl)Cl)cc(Cl)c1OCCCOc1ccc(C(F)(F)F)cn1 [compound 593],active,active,
